Reference: ChEMBL document CHEMBL1201862, “PubChem BioAssay data set” (2004)
Calls of active or inactive are those of the source.

Key:
[1] = test system: INS1; experiment: beta cell apoptosis inhibitors, cytokine rescue, dose response, luminescence, retest (AID 449756); type: functional, cell-based; settings: Rattus norvegicus;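 note: cell death triggered by IL-1 beta plus TNF-alpha plus IFN-gamma mixture; protective hits raise ATP signal compared with cytokine alone wells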
[2] = target: T1, Protein RecA (Mycobacterium tuberculosis, UniProt P9WHJ3); experiment: Fluorescence Cell-Free Homogeneous Dose Retest to Identify Inhibitors of RecA-Intein Splicing Activity. [Related pubchem assays (depositor defined):AID2097, AID2223, AID489010, AID492950]; type: functional
T1 sequence (P9WHJ3 whole entry): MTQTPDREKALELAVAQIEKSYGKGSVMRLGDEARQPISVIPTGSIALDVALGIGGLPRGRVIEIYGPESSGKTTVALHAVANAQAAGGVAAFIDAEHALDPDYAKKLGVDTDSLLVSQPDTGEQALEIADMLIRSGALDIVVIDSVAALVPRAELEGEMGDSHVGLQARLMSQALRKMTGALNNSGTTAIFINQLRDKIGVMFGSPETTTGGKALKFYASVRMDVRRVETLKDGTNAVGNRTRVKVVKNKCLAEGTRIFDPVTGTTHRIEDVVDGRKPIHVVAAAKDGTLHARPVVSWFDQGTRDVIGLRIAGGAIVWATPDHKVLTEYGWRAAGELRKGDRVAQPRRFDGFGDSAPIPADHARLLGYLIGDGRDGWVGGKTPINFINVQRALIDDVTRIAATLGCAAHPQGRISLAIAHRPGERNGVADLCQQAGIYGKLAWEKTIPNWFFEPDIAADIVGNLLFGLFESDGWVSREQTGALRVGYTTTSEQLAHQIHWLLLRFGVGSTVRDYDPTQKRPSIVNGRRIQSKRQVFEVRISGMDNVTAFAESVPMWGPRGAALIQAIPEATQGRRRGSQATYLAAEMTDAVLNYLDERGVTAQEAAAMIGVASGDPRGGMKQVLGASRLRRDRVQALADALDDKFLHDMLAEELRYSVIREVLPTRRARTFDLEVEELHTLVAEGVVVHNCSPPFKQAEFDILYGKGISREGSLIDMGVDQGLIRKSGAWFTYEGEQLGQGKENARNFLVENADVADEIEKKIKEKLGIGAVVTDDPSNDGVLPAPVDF

[3] = target: T2, Replicative DNA helicase DnaB (Mycobacterium tuberculosis, UniProt P9WMR3); experiment: DnaB intein splicing inhibitors, dose response, biochemical, cell-free fluorescence (AID 449749); type: functional
T2 sequence (P9WMR3 whole entry): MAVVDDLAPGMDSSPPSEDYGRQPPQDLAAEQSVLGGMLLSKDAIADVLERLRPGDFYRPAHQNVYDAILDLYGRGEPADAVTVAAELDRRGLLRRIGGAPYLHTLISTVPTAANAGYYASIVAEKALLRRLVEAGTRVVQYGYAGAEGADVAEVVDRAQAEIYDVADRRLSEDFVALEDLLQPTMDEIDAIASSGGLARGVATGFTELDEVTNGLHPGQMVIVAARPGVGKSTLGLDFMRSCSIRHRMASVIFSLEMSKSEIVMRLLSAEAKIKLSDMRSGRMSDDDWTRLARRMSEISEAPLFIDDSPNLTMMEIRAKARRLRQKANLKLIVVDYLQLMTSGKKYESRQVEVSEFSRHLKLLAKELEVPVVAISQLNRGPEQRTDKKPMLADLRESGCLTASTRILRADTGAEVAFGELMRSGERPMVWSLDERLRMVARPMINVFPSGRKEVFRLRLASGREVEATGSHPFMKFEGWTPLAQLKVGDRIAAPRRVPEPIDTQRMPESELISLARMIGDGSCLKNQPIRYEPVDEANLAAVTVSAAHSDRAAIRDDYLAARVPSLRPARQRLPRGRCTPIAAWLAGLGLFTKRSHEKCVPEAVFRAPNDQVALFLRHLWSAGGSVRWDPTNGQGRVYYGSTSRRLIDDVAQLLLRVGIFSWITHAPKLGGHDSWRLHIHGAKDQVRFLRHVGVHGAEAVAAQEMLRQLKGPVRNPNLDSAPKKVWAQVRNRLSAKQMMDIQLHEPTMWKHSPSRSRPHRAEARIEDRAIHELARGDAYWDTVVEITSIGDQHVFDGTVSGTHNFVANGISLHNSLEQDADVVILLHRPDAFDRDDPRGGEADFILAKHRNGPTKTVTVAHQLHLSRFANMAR

[4] = target: T3, Heat shock factor protein 1 (Mus musculus, UniProt P38532); experiment: HSF1 potentiators in luciferase reporter cells, confirmation, cell-based, NIH3T3, luminescence, dose retest (AID 435004); type: functional;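 note: stress induced by proteasome inhibitor MG132 added 30 min after compound; luciferase reporter driven by HSF1 response element in NIH3T3 cells; actives raise luminescence as potentiators of the MG132 stress response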
T3 sequence (P38532 whole entry): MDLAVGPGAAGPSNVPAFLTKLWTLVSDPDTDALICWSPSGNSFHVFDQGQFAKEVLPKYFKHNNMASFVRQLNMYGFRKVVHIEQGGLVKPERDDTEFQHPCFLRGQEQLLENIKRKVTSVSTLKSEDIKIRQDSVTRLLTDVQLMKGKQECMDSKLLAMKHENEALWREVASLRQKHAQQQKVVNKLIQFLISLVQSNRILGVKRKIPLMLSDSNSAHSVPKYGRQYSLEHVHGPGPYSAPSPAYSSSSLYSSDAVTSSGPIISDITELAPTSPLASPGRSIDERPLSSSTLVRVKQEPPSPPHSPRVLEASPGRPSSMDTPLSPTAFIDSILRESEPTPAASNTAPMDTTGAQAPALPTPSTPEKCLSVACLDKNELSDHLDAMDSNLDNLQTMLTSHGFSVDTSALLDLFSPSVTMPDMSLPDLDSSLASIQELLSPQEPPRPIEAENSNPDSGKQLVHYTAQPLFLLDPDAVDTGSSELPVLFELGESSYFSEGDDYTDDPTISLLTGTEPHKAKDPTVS

[5] = test system: Vero; experiment: Vero cell cytotoxicity, cytotoxicity control for flavivirus capping enzyme inhibitors (AID 588742); type: functional; settings: Chlorocebus sabaeus
[6] = test system: Streptococcus sp. 'group A'; experiment: growth inhibition of control SK(-) GAS strain, dose response, counter-screen for streptokinase expression inhibitor project, luminescence, kanamycin, BacTiterGlo, confirmation (AID 1900); type: functional, organism-based

For `Cc1ccc(NC2=CC(=O)C(=O)c3ccccc32)cc1`, the AC50 [1] was 2630 nM (active), the EC50 [2] was 999 nM (active) and the AC50 [3] was 971 nM (active). For the same compound, the EC50 [4] was 7040 nM (active) and the CC50 [5] was 11400 nM (active).

For `O=C(O)c1ccc(S(=O)(=O)/N=C2\C=C(Nc3ccccc3F)C(=O)c3ccccc32)cc1`, the AC50 [1] was 2610 nM (active), the EC50 [2] was 66.3 nM (active) and the EC50 [6] was 5740 nM (active). The AC50 [3] was 146 nM (active), the EC50 [4] was > 260000 nM (inconclusive) and the CC50 [5] was 26400 nM (active).
